The structures appear in SMILES notation.

The target in the first assay is Steroidogenic factor 1 (Homo sapiens, UniProt Q13285). Put plainly: inhibition of SF-1 LBD-driven luciferase – cell-based, CHO-K1, Gal4-SF-1 LBD, luciferase luminescence, counter-screen for RORA inhibitor project, dose response (AID 611).
Sequence of Steroidogenic factor 1 (Q13285 whole entry, the tested form may be a part): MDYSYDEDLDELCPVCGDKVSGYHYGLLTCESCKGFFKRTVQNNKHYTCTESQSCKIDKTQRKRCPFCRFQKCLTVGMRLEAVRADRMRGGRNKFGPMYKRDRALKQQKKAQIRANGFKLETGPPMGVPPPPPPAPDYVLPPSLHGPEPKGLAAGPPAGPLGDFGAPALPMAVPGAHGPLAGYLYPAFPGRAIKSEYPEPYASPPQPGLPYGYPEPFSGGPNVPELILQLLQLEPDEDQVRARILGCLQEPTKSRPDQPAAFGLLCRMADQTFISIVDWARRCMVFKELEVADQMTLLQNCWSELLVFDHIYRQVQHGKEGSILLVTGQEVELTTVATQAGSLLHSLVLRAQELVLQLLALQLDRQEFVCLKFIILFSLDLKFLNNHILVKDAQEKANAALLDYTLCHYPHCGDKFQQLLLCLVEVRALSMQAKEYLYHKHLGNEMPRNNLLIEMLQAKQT
Details: not given
(In general: A counterscreen serves to expose hits that act by an unwanted route or on another target.)
With `Cc1cccc(NC(=O)Nc2ccc(C#N)cc2)n1` [1-(4-cyanophenyl)-3-(6-methyl-2-pyridinyl)urea], half-maximal inhibition (IC50) was put at 6.32 µM. Still for that read-out and setting: to `Cc1ccc(-c2csc3ncnc(Sc4nnc(CN5CCCCCC5=O)o4)c23)cc1` [1-[[5-[5-(4-methylphenyl)thieno[2,3-d]pyrimidin-4-yl]sulfanyl-1,3,4-oxadiazol-2-yl]methyl]azepan-2-one] belongs 7.12 µM; to `CCOc1ccc(C2=Nn3c(nnc3-c3ccccc3OC)SC2)cc1` [6-(4-ethoxyphenyl)-3-(2-methoxyphenyl)-7H-[1,2,4]triazolo[3,4-b][1,3,4]thiadiazine], 0.39 µM.

In the case of `Clc1ccc(-c2nnc(NC3=NCCCCC3)o2)cc1`, the IC50 (commonly the concentration at which inhibition is half-maximal) was above 3.67 µM.

Compound `COc1ccc(CCNc2ncnc3c2oc2ccccc23)cc1OC` [MLS000041708] gave an IC50 of 2.27 µM.

In turn, `Cn1ncnc2c(=O)n(C)c(=O)nc1-2` registered an IC50 of 0.633 µM.

In turn, `O=S1(=O)Nc2c(ccc3cccnc23)-c2ccccc21` [5H-quinolino[8,7-c][1,2]benzothiazine 6,6-dioxide] showed an IC50 of 4.43 µM. The same measure, in the same setting: the result for `COc1ccc(CNC(=O)c2cc3c(C)nc4ccccc4c3o2)c(OC)c1` [MLS000118441] reads above 3.67 µM. Still for that read-out and setting: to `CCn1nc(-c2cccs2)nc2c(=O)n(C)c(=O)nc1-2` [1-ethyl-6-methyl-3-thiophen-2-yl-pyrimido[5,4-e][1,2,4]triazine-5,7-dione] belongs 2.19 µM; to `Cc1ccc(-c2cc3c(nn2)-c2ccccc2C3=O)cc1` [3-(4-methylphenyl)-5H-indeno[1,2-c]pyridazin-5-one], 2.62 µM; to `COc1ccc(CCNc2c(C)c(C)nc3ncnn23)cc1` [(5,6-Dimethyl-[1,2,4]triazolo[1,5-a]pyrimidin-7-yl)-[2-(4-methoxy-phenyl)-ethyl]-amine], 6.45 µM.

As for `c1ccc2nc(-c3nc4ccccc4[nH]3)ccc2c1` [SMR000008748], half-maximal inhibition (IC50) was put at 7.19 µM. Same read-out and setting: to `CC(NC(=O)Nc1nnc(C(F)(F)F)s1)(C(F)(F)F)C(F)(F)F` [1-(1,1,1,3,3,3-hexafluoro-2-methylpropan-2-yl)-3-[5-(trifluoromethyl)-1,3,4-thiadiazol-2-yl]urea] belongs 5.6 µM.

Regarding `CCOC(=O)N1CCN(C(=O)C2CCN(c3ncnc4c3sc3cccc(F)c34)CC2)CC1` [4-[1-(9-fluorobenzothiopheno[3,2-d]pyrimidin-4-yl)isonipecotoyl]piperazine-1-carboxylic acid ethyl ester], the IC50 turned out to be 6.51 µM. Same read-out and setting: to `Clc1ccc(-n2ncc3c(N4CCCCCC4)ncnc32)cc1` [4-(1-azepanyl)-1-(4-chlorophenyl)pyrazolo[3,4-d]pyrimidine] belongs 0.846 µM. The compound `CC1CCc2nc(NC(=O)c3ccco3)sc2C1` (centres undefined) [MLS000063711] displayed an IC50 of 3.29 µM.

`c1ccc2nc(-c3nc4ccccc4o3)ccc2c1` [2-(1,3-benzoxazol-2-yl)quinoline] returned an IC50 of 5.39 µM. Turning to `Nc1nc(Cl)nc2c1ncn2[C@H]1C[C@H](O)[C@@H](CO)O1` [2-CHLORO-2'-DEOXYADENOSINE], the IC50 came out at 0.666 µM. `O=C(CSc1nnnn1-c1ccccc1)Nc1nsc(-c2ccc(Cl)cc2)n1` [MLS000085595] gave an IC50 of 5.78 µM.

In turn, `Cc1ccc(-c2csc(N3CCC(NS(=O)(=O)c4ccc5c(c4)OCCO5)CC3)n2)cc1` [N-[1-[4-(4-methylphenyl)-1,3-thiazol-2-yl]piperidin-4-yl]-2,3-dihydro-1,4-benzodioxine-6-sulfonamide] returned an IC50 of 5.97 µM. Consider `Cc1ccc(S(=O)(=O)Nc2cccc3ncccc23)s1` [5-methyl-N-quinolin-5-ylthiophene-2-sulfonamide], for which the IC50 amounted to 5.33 µM.

For the compound `COc1ccc(-c2noc(CCCC(=O)O)n2)cc1` [4-[3-(4-methoxyphenyl)-1,2,4-oxadiazol-5-yl]butanoic acid], the IC50 is 2.72 µM. The same measure, in the same setting: the result for `CCOc1ccc(OCc2cccc(C(=O)O)c2)cc1` [3-[(4-ethoxyphenoxy)methyl]benzoic acid] reads 0.274 µM; that for `CCCCCOC(=O)c1[nH]c2c(c1C)C(=O)CC(c1ccco1)C2` (centres undefined) [pentyl 6-(furan-2-yl)-3-methyl-4-oxidanylidene-1,5,6,7-tetrahydroindole-2-carboxylate], 1.87 µM.

Compound `C[S+]([O-])c1nc(-c2ccc(Br)cc2)cc(-c2ccccc2)c1C#N` (centres undefined) [6-(4-bromophenyl)-2-(methylsulfinyl)-4-phenylnicotinonitrile] yielded an IC50 of 8.07 µM.

The assay is the same for the next values; noted with them: inactive by the depositor's call.
For `Cc1cc(C)nc(SC2=CS(=O)(=O)c3ccccc32)n1` [2-[(1,1-dioxido-1-benzothien-3-yl)thio]-4,6-dimethylpyrimidine], the midpoint of inhibition, the IC50, lay at 13 µM.

In the case of `CCOc1cc(C(=O)N2CCc3cc(OC)c(OC)cc3C2)ccc1OC(F)F` [MLS000083614], the IC50 turned out to be 10.6 µM. Still for that read-out and setting: the result for `CC(=O)N1CCc2cc(S(=O)(=O)NCCC3=CCCCC3)ccc21` [1-acetyl-N-(2-cyclohex-1-en-1-ylethyl)indoline-5-sulfonamide] reads 17.6 µM; that for `O=C(O)CCSc1nc2ccccc2s1` [3-(Benzothiazol-2-ylsulfanyl)-propionic acid], 19.1 µM.

The record behind these values is BindingDB's records for doi:10.7270/Q2PR7TCX (The Scripps Research Institute Molecular Screening Center, 2007).
